Patent US20250034135A1, “ANTI-APOPTOTIC PROTEIN BCL-2 INHIBITOR, PHARMACEUTICAL COMPOSITION AND USES THEREOF” (HANGZHOU HEALZEN THERAPEUTICS CO., LTD., priority 2021, published 2025)

Target: BCL2 (Homo sapiens (Human), UniProt P10415)
Assay: Molecular level activity test of anti-apoptotic protein BCL2 (HTRF, binding to Bim peptide)
Details: HTRF, binding of BCL2 to Bim peptide; read-out: BCL2 nM (inhibitory activity, IC50)
Method in brief: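 Disruption of the BCL2/Bim peptide interaction is detected by homogeneous time-resolved fluorescence, using anti-His and streptavidin-XL665 reagents against His-tagged protein and biotin-tagged peptide. Compound exposure lasts 1 h before reagent addition; plates then sit 4 h at room temperature.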

Sequence of BCL2 (P10415 whole entry): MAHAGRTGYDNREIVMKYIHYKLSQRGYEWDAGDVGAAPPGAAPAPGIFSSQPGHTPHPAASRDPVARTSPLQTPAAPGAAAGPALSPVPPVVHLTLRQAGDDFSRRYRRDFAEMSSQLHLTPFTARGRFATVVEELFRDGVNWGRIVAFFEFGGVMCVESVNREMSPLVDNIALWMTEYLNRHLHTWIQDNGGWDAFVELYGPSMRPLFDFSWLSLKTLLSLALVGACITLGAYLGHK

IC50 [nM]	Structure (SMILES)
< 10	COc1ccc(CN2CCN(C3CC4(CCN(c5cc(Oc6cnc7[nH]ccc7c6)c(C(=O)NS(=O)(=O)c6cc([N+](=O)[O-])c(NCC7(F)CCN(C(C)C)CC7)c7[nH]cnc67)cc5F)CC4)C3)C(c3ccccc3C(C)C)C2)cc1 (stereo not shown) [compound 073, 2-((1H-pyrrolo[2,3-b]pyrid-5-yl)oxy)-5-fluoro-N-((7-(((4-fluoro-1-isopropylpiperid-4-yl)methyl)amino)-6-nitro-1H-benzo[d]imidazol-4-yl)sulfonyl)-4-(2-(2-(2-isopropylphenyl)-4-(4-methoxybenzyl)piperazin-1-yl)-7-azaspiro[3.5]non-7-yl)benzamide]
< 10	COc1ccc(CN2CCN(C3CC4(CCN(c5cc(Oc6cnc7[nH]ccc7c6)c(C(=O)NS(=O)(=O)c6cc([N+](=O)[O-])c(NCC7(F)CCOCC7)c7scnc67)cc5F)CC4)C3)[C@H](c3ccccc3C(C)C)C2)cn1 [compound 128, (R)-2-((1H-pyrrolo[2,3-b]pyrid-5-yl)oxy)-5-fluoro-N-((7-(((4-fluorotetrahydro-2H-pyran-4-yl)methyl)amino)-6-nitrobenzo[d]thiazol-4-yl)sulfonyl)-4-(2-(2-(2-isopropylphenyl)-4-((6-methoxypyrid-3-yl)methyl)piperazin-1-yl)-7-azaspiro[3.5]non-7-yl)benzamide]
< 10	COc1ccc(CN2CCN(C3CC4(CCN(c5cc(Oc6cnc7[nH]ccc7c6)c(C(=O)NS(=O)(=O)c6cc([N+](=O)[O-])c(NCC7(F)CCOCC7)c7c6ncc(=O)n7C)cc5F)CC4)C3)[C@H](c3ccccc3C(C)C)C2)cc1
< 10	CC(C)c1ccccc1[C@@H]1CCCN1C1CC2(CCN(c3cc(Oc4cnc5[nH]ccc5c4)c(C(=O)NS(=O)(=O)c4cc([N+](=O)[O-])c(NCC5CCOCC5)c5c4OCO5)cc3F)CC2)C1 [compound 156, (S)-2-((1H-pyrrolo[2,3-b]pyrid-5-yl)oxy)-5-fluoro-4-(2-(2-(2-isopropylphenyl)pyrrolidin-1-yl)-7-azaspiro[3.5]non-7-yl)-N-((6-nitro-7-(((tetrahydro-2H-pyran-4-yl)methyl)amino)benzo[d][1,3]dioxocyclopent-4-yl)sulfonyl)benzamide]

Continued, compound first:

Structure (SMILES)	IC50 [nM]
CC(C)c1ccccc1[C@@H]1CCCN1C1CC2(CCN(c3cc(Oc4cnc5[nH]ccc5c4)c(C(=O)NS(=O)(=O)c4cc([N+](=O)[O-])c(NC[C@H]5COCCO5)c5c4OCO5)cc3F)CC2)C1 [compound 157, N-((7-((((S)-1,4-dioxan-2-yl)methyl)amino)-6-nitrobenzo[d][1,3]dioxocyclopent-4-yl)sulfonyl)-2-((1H-pyrrolo[2,3-b]pyrid-5-yl)oxy)-5-fluoro-4-(2-((S)-2-(2-isopropylphenyl)pyrrolidin-1-yl)-7-azaspiro[3.5]non-7-yl)benzamide]	< 10
COc1ccc(CN2CCN(C3CC4(CCN(c5cc(Oc6cnc7[nH]ccc7c6)c(C(=O)NS(=O)(=O)c6cc([N+](=O)[O-])c(NCC7CCOCC7)c7ocnc67)cc5F)CC4)C3)[C@H](c3ccccc3C(C)C)C2)cc1 [compound 121, (R)-2-((1H-pyrrolo[2,3-b]pyrid-5-yl)oxy)-5-fluoro-4-(2-(2-(2-isopropylphenyl)-4-(4-methoxybenzyl)piperazin-1-yl)-7-azaspiro[3.5]non-7-yl)-N-((6-nitro-7-(((tetrahydro-2H-pyran-4-yl)methyl)amino)benzo[d]oxazol-4-yl)sulfonyl)benzamide]	< 10
CC(C)c1ccccc1[C@@H]1CN(Cc2ccc(NS(C)(=O)=O)cc2)CCN1C1CC2(CCN(c3cc(Oc4cnc5[nH]ccc5c4)c(C(=O)NS(=O)(=O)c4ccc(NCC5(F)CCOCC5)c([N+](=O)[O-])c4)cc3F)CC2)C1 [compound 201, (R)-2-((1H-pyrrolo[2,3-b]pyrid-5-yl)oxy)-5-fluoro-N-((4-(((4-fluorotetrahydro-2H-pyran-4-yl)methyl)amino)-3-nitrophenyl)sulfonyl)-4-(2-(2-(2-isopropylphenyl)-4-(4-(methylsulfonylamino)benzyl)piperazin-1-yl)-7-azaspiro[3.5]non-7-yl)benzamide]	< 10
